Test results taken from patent US6962933B1, “Method for inhibiting p38 MAP kinase or TNF-α production using a 1,3-thiazole” (Takeda Pharmaceutical Company Limited, priority 1999, dated 2005).

melting point | SMILES
172 to 173 °C | CNc1nc(-c2ccc3c(c2)CCC3)c(-c2cccnc2)s1 [13-74]
282 to 284 °C | COc1ccc(-c2nc(N)sc2-c2ccncc2)cc1 [Reference Example 13-14, [4-(4-methoxyphenyl)-5-(4-pyridyl)-1,3-thiazol-2-yl]amine]
191 to 192 °C | CNc1nc(-c2ccccc2)c(-c2ccncc2)s1 [Reference Example 13-47, N-methyl [4-phenyl-5-(4-pyridyl)-1,3-thiazol-2-yl]amine]
205 to 206 °C | CNc1nc(-c2ccc(F)cc2)c(-c2ccncc2)s1 [Reference Example 13-69, N-methyl [4-(4-fluorophenyl)-5-(4-pyridyl)-1,3-thiazol-2-yl]amine]
233 to 234 °C | O=C(Cc1ccccc1)Nc1nc(-c2ccccc2)c(-c2ccncc2)s1 [Reference Example 23-29, 2-phenyl-N-[4-phenyl-5-(4-pyridyl)-1,3-thiazol-2-yl]acetamide]
290 to 293 °C | CC(=O)Nc1nc(-c2cccc(Cl)c2)c(-c2ccncc2)s1 [Reference Example 23-49, N-[4-(3-chlorophenyl)-5-(4-pyridyl)-1,3-thiazol-2-yl]acetamide]
287 to 289 °C | CC(=O)Nc1nc(-c2cccc(C)c2)c(-c2ccncc2)s1 [Reference Example 23-51, N-[4-(3-methylphenyl)-5-(4-pyridyl)-1,3-thiazol-2-yl]acetamide]
256 to 258 °C | Nc1nc(-c2cccc(Cl)c2)c(-c2ccncc2)s1 [Reference Example 23-59, [4-(3-chlorophenyl)-5-(4-pyridyl)-1,3-thiazol-2-yl]amine]
296 to 298 °C | Cc1ccc(-c2nc(N)sc2-c2ccncc2)cc1 [Reference Example 23-62, [4-(4-methylphenyl)-5-(4-pyridyl)-1,3-thiazol-2-yl]amine]
224 to 226 °C | CCNC(=O)Nc1nc(-c2ccc(OC)cc2)c(-c2ccncc2)s1 [Reference Example 23-156, N-ethyl-N′-[4-(4-methoxyphenyl)-5-(4-pyridyl)-1,3-thiazol-2-yl]urea]
175 to 176 °C | CCNc1nc(-c2ccc(OC)cc2)c(-c2ccncc2)s1 [Reference Example 23-269, N-ethyl-[4-(4-methoxyphenyl)-5-(4-pyridyl)-1,3-thiazol-2-yl]amine]
165 to 168 °C | CCCCNc1nc(-c2cc(C)cc(C)c2)c(-c2ccncc2)s1 [Reference Example 23-280, N-butyl-[4-(3,5-dimethylphenyl)-5-(4-pyridyl)-1,3-thiazol-2-yl]amine]
186 to 188 °C | Cc1cc(C)cc(-c2nc(NCc3ccccc3)sc2-c2ccncc2)c1 [Reference Example 23-281, N-benzyl-[4-(3,5-dimethylphenyl)-5-(4-pyridyl)-1,3-thiazol-2-yl]amine]
141 to 142 °C | CCCNc1nc(-c2ccc(OC)cc2)c(-c2ccncc2)s1 [Reference Example 23-290, N-propyl-[4-(4-methoxyphenyl)-5-(4-pyridyl)-1,3-thiazol-2-yl]amine]
161 to 163 °C | COc1ccc(-c2nc(NC(C)C)sc2-c2ccncc2)cc1 [Reference Example 23-291, N-isopropyl-[4-(4-methoxyphenyl)-5-(4-pyridyl)-1,3-thiazol-2-yl]amine]
217 to 219 °C | COc1ccc(-c2nc(NC(=O)Nc3ccccc3)sc2-c2ccncc2)cc1 [Reference Example 23-296, N-[4-(4-methoxyphenyl)-5-(4-pyridyl)-1,3-thiazol-2-yl]-N′-phenylurea]
127 to 128 °C | COc1ccc(-c2nc(-c3ccc(SC)cc3)sc2-c2ccncc2)cc1 [Reference Example 23-300, methyl 4-[2-[4-(methylthio)phenyl]-5-(4-pyridyl)-1,3-thiazol-4-yl]phenyl ether]
191 to 194 °C | O=S(=O)(Cc1ccc(-c2nc(-c3ccc(F)cc3)c(-c3ccncc3)s2)cc1)Cc1ccc(-c2nc(-c3ccc(F)cc3)c(-c3ccncc3)s2)cc1 [Reference Example 23-313, 4-[4-(4-fluorophenyl)-5-(4-pyridyl)-1,3-thiazol-2-yl]phenylmethylsulfone]
202 to 204 °C | O=S(=O)(Cc1ccc(-c2nc(-c3ccc(Cl)cc3)c(-c3ccncc3)s2)cc1)Cc1ccc(-c2nc(-c3ccc(Cl)cc3)c(-c3ccncc3)s2)cc1 [Reference Example 23-314, 4-[4-(4-chlorophenyl)-5-(4-pyridyl)-1,3-thiazol-2-yl]phenylmethylsulfone]
221 to 222 °C | COc1ccc(-c2nc(NC(=O)C(C)O)sc2-c2ccncc2)cc1 (centres unmarked) [Reference Example 23-325, 2-hydroxy-N-[4-(4-methoxyphenyl)-5-(4-pyridyl)-1,3-thiazol-2-yl]propionamide]
159 to 161 °C | Cc1ccc(-c2nc(-c3ccc(CSCc4ccc(-c5nc(-c6ccc(C)c(C)c6)c(-c6ccncc6)s5)cc4)cc3)sc2-c2ccncc2)cc1C [Reference Example 23-326, 4-[4-(3,4-dimethylphenyl)-5-(4-pyridyl)-1,3-thiazol-2-yl]phenylmethylsulfide]

The next lines start with the molecule.

SMILES | melting point
Nc1nc(-c2ccccc2)c(-c2ccncc2)s1 [Reference Example 13-15, [4-phenyl-5-(4-pyridyl)-1,3-thiazol-2-yl]amine] | 248 to 250 °C
CNc1nc(-c2ccc(Br)cc2)c(-c2ccncc2)s1 [Reference Example 13-71, N-methyl [4-(4-bromophenyl)-5-(4-pyridyl)-1,3-thiazol-2-yl]amine] | 206 to 207 °C
O=C(CCc1ccccc1)Nc1nc(-c2ccccc2)c(-c2ccncc2)s1 [Reference Example 23-30, 3-phenyl-N-[4-phenyl-5-(4-pyridyl)-1,3-thiazol-2-yl]propionamide] | 214 to 216 °C
CCC(=O)Nc1nc(-c2cccc(Cl)c2)c(-c2ccncc2)s1 [Reference Example 23-50, N-[4-(3-chlorophenyl)-5-(4-pyridyl)-1,3-thiazol-2-yl]propionamide] | 289 to 290 °C
CCC(=O)Nc1nc(-c2cccc(C)c2)c(-c2ccncc2)s1 [Reference Example 23-52, N-[4-(3-methylphenyl)-5-(4-pyridyl)-1,3-thiazol-2-yl]propionamide] | 258 to 260 °C
Nc1nc(-c2ccc(Cl)cc2)c(-c2ccncc2)s1 [Reference Example 23-61, [4-(4-chlorophenyl)-5-(4-pyridyl)-1,3-thiazol-2-yl]amine] | > 300 °C
CC(=O)Nc1nc(-c2ccccc2)c(-c2ccncc2)s1 [Reference Example 23-71, N-[4-phenyl-5-(4-pyridyl)-1,3-thiazol-2-yl]acetamide] | 294 to 297 °C
COc1ccc(-c2nc(Nc3ccccc3)sc2-c2ccncc2)cc1 [Reference Example 23-80, N-phenyl-[4-(4-methoxyphenyl)-5-(4-pyridyl)-1,3-thiazol-2-yl]amine] | 287 to 289 °C
COc1ccc(-c2nc(NC(=O)c3cccnc3)sc2-c2ccncc2)cc1 [Reference Example 23-101, N-[4-(4-methoxyphenyl)-5-(4-pyridyl)-1,3-thiazol-2-yl]nicotinamide] | 278 to 281 °C
COc1ccc(-c2nc(NC(=O)c3ccncc3)sc2-c2ccncc2)cc1 [Reference Example 23-102, N-[4-(4-methoxyphenyl)-5-(4-pyridyl)-1,3-thiazol-2-yl]isonicotinamide] | 295 to 297 °C
Cc1ccc(-c2nc(N)sc2-c2ccncc2)cc1C [Reference Example 23-125, [4-(3,4-dimethylphenyl)-5-(4-pyridyl)-1,3-thiazol-2-yl]amine] | 248 to 250 °C
Cc1cc(C)cc(-c2nc(NC(=O)c3ccncc3)sc2-c2ccncc2)c1 [Reference Example 23-200, N-[4-(3,5-dimethylphenyl)-5-(4-pyridyl)-1,3-thiazol-2-yl]isonicotinamide] | 302 to 304 °C
CCCNc1nc(-c2cc(C)cc(C)c2)c(-c2ccncc2)s1 [Reference Example 23-276, N-propyl-[4-(3,5-dimethylphenyl)-5-(4-pyridyl)-1,3-thiazol-2-yl]amine] | 177 to 180 °C
COc1ccc(-c2nc(NC(=O)c3ccc(C(=O)O)cc3)sc2-c2ccncc2)cc1 [Reference Example 23-299, 4-[[[4-(4-methoxyphenyl)-5-(4-pyridyl)-1,3-thiazol-2-yl]amino]carbonyl]benzoic acid] | 332 to 335 °C
Cc1cc(C)cc(-c2nc(NC(=O)Nc3ccccc3)sc2-c2ccncc2)c1 [Reference Example 23-315, N-[4-(3,5-dimethylphenyl)-5-(4-pyridyl)-1,3-thiazol-2-yl]-N′-phenylurea] | 167 to 169 °C
Cc1ccc(-c2nc(-c3ccc(C[S+]([O-])Cc4ccc(-c5nc(-c6ccc(C)c(C)c6)c(-c6ccncc6)s5)cc4)cc3)sc2-c2ccncc2)cc1C [Reference Example 23-327, 4-[4-(3,4-dimethylphenyl)-5-(4-pyridyl)-1,3-thiazol-2-yl]phenylmethylsulfoxide] | 161 to 164 °C
Cc1ccc(-c2nc(-c3ccc(CS(=O)(=O)Cc4ccc(-c5nc(-c6ccc(C)c(C)c6)c(-c6ccncc6)s5)cc4)cc3)sc2-c2ccncc2)cc1C [Reference Example 23-328, 4-[4-(3,4-dimethylphenyl)-5-(4-pyridyl)-1,3-thiazol-2-yl]phenylmethylsulfone] | 194 to 196 °C
COc1ccc(-c2nc(NC(=O)CO)sc2-c2ccncc2)cc1 [Reference Example 23-329, 2-hydroxy-N-[4-(4-methoxyphenyl)-5-(4-pyridyl)-1,3-thiazol-2-yl]acetamide] | 228 to 230 °C
Cc1cc(C)cc(-c2nc(NC(=O)c3ccc(C(=O)O)cc3)sc2-c2ccncc2)c1 [Reference Example 23-337, 4-[[[4-(3,5-dimethylphenyl)-5-(4-pyridyl)-1,3-thiazol-2-yl]amino]carbonyl]benzoic acid] | 347 to 349 °C
Cc1cc(C)cc(-c2nc(NC(=O)c3cccc(C(=O)O)c3)sc2-c2ccncc2)c1 [Reference Example 23-342, 3-[[[4-(3,5-dimethylphenyl)-5-(4-pyridyl)-1,3-thiazol-2-yl]amino]carbonyl]benzoic acid] | 350 to 353 °C
